# Details: for aqueous solubility: pH 6.8
SMILES,MDR1-MDCK efflux ratio,"intrinsic clearance, human liver microsomes","intrinsic clearance, rat liver microsomes",aqueous solubility
O=C(NC1=NS(=O)(=O)c2ccccc21)c1cc(-c2ccc(F)cc2)no1,2.56,90.3 mL/min/kg,≤ 10.7 mL/min/kg,31.8 µg/mL
Fc1ccc(-n2nc(C3CCOCC3)nc2-c2cn[nH]c2)c(F)c1,19.6,≤ 4.74 mL/min/kg,62.7 mL/min/kg,25.9 µg/mL
Cc1[nH]nc(CCC(=O)NCCCOC2CCCC2)c1C,14.4,33.6 mL/min/kg,2410 mL/min/kg,
O=c1sn(-c2cccc3ccccc23)c(=O)n1Cc1ccccc1,,,,0.4 µg/mL
CCN(CCOC)C(=O)Nc1ccc2occc(=O)c2c1,1.32,9.83 mL/min/kg,32.7 mL/min/kg,
NC(=O)c1ccccc1NC(=O)CN1CCCC(c2nc3ccccc3o2)C1 (configuration not stated),8,126 mL/min/kg,827 mL/min/kg,10 µg/mL
O=C(NCc1ccc(F)cc1)c1ccccn1,0.543,≤ 4.74 mL/min/kg,21.1 mL/min/kg,34.8 µg/mL
O=C(Cc1cccc2ccccc12)NCc1ccc(N2CCCC2=O)cc1,,,,14.1 µg/mL
Cc1cc2cc(C(=O)N(Cc3ccc4c(c3)OCO4)C3CC3)ccc2o1,0.28,127 mL/min/kg,1730 mL/min/kg,11.7 µg/mL
COc1cc(Br)c2c(=O)[nH]c(C)nc2c1,0.691,13.9 mL/min/kg,148 mL/min/kg,
Cc1oc(C)c(C(=O)NCC#Cc2ccccc2)c1C,0.446,107 mL/min/kg,1320 mL/min/kg,48 µg/mL
CCOC(=O)c1cc2ccccc2n1CC(=O)c1ccc(F)cc1,0.662,756 mL/min/kg,1890 mL/min/kg,6.56 µg/mL
N#Cc1cccc(-c2ccc(=O)n3c2[C@@H]2C[C@@H](CN(Cc4ccc(F)cc4)C2)C3)c1,6.11,218 mL/min/kg,1470 mL/min/kg,32.4 µg/mL
O=C(NCCc1ccccc1)c1cnccn1,0.607,13.5 mL/min/kg,29 mL/min/kg,59.1 µg/mL
c1ccc(CN2CCn3nccc3C2)cc1,0.584,≤ 4.74 mL/min/kg,31 mL/min/kg,15.3 µg/mL
CC(=O)N(C)[C@@H]1CO[C@@H]2CCN(C[C@]3(O)CC[C@@H](C(C)(C)C)CC3)C[C@@H]2C[C@@]1(C)O,23.5,65 mL/min/kg,276 mL/min/kg,
Cc1nc2ccccc2n1Cc1ccc(C(=O)O)cc1,2.75,≤ 4.74 mL/min/kg,≤ 10.7 mL/min/kg,35.4 µg/mL
Cn1ccc(NC(=O)c2cc(-c3ccncc3)nc3ccccc23)n1,,21.4 mL/min/kg,65.7 mL/min/kg,31.5 µg/mL
NC(=O)Cn1ccc(-c2ccccc2)n1,0.792,≤ 4.74 mL/min/kg,≤ 10.7 mL/min/kg,40.5 µg/mL
CN(Cc1cccc(C#N)c1)Cc1ccccc1C#N,0.591,283 mL/min/kg,4220 mL/min/kg,29.4 µg/mL
CC(=O)N1CCN(C(=O)CCc2ccc(-c3ccccc3)[nH]2)CC1,8.83,≤ 4.74 mL/min/kg,59.6 mL/min/kg,61.8 µg/mL
Cc1ccc(OCCCC(=O)N2CCC(n3c(=O)[nH]c4ccccc43)CC2)cc1,,123 mL/min/kg,1540 mL/min/kg,
NC(=O)Cc1nc(-c2ccc(Cl)cc2Cl)cs1,,,,41 µg/mL
COC(=O)c1ccc2c(c1)CCN2S(=O)(=O)c1ccc(Cl)c(C(F)(F)F)c1,,,,0.9 µg/mL
Oc1ccc2nc(/C=C/c3csnn3)ccc2c1Cl,0.069,99.4 mL/min/kg,240 mL/min/kg,
O=S(=O)(NCCC(c1ccccc1)c1ccccc1)c1ccc(Cl)cc1,,396 mL/min/kg,9320 mL/min/kg,
Cc1ccc(Nc2ccnc(Nc3ccc(C)cc3)n2)cc1,0.2,85.2 mL/min/kg,477 mL/min/kg,
CC(=O)NCCCC(=O)Nc1ccc(Oc2ccccc2Cl)cc1,8.25,9.61 mL/min/kg,722 mL/min/kg,

# The next lines start with the values.
MDR1-MDCK efflux ratio,"intrinsic clearance, human liver microsomes","intrinsic clearance, rat liver microsomes",aqueous solubility,SMILES
11.3,33.7 mL/min/kg,486 mL/min/kg,52.2 µg/mL,Cc1cnc(NCc2ccccc2-n2ccnc2)nc1N(C)C
10.9,≤ 4.74 mL/min/kg,≤ 10.7 mL/min/kg,51.2 µg/mL,CCCC(=O)NCC(=O)Nc1cnc(N2CCN(C)CC2)nc1
2.63,5.26 mL/min/kg,≤ 10.7 mL/min/kg,,Cc1ccc(OCN2CCCCC2=O)nc1
0.862,15.1 mL/min/kg,2130 mL/min/kg,,CN1CCC(=C2c3ccccc3CCc3sccc32)CC1
1.1,7.25 mL/min/kg,499 mL/min/kg,,O=C1CN(C(=O)c2ccc(Cl)cn2)CCN1CCc1ccccc1
3.36,≤ 4.74 mL/min/kg,236 mL/min/kg,,CC(C)Cc1n[nH]c(-c2ccc(N3CCN(C)CC3)cc2)n1
3.06,8.59 mL/min/kg,90.9 mL/min/kg,,CN(C)c1ccnc2sc3c(=O)n(N4CCCCCC4)cnc3c12
1.51,15 mL/min/kg,68.4 mL/min/kg,40 µg/mL,Cn1cc(CCNC(=O)N2CCc3sccc3C2)cn1
1.31,≤ 4.74 mL/min/kg,≤ 10.7 mL/min/kg,54.4 µg/mL,O=C1CCCN1c1ccc(NCc2ccccn2)nc1
0.702,55.8 mL/min/kg,166 mL/min/kg,4.94 µg/mL,Cc1cc(C)n2ncc(C(=O)NC3CCCCC3)c2n1
0.877,13.4 mL/min/kg,63.7 mL/min/kg,45.5 µg/mL,N#Cc1ccc(N2CCc3c(ncn3C3CC3)C2)nc1
16.9,158 mL/min/kg,2090 mL/min/kg,26.9 µg/mL,C=C(C)COc1cccc(C(=O)NCc2nncn2C2CCCCC2)c1
1.92,98.6 mL/min/kg,950 mL/min/kg,,CC(C)(C)c1cnc(CN2CCC(=O)Nc3cc(F)ccc32)o1
0.874,≤ 4.74 mL/min/kg,548 mL/min/kg,,Cc1ccsc1-c1nsc(NC(=O)CN(C)C)n1

# — the Biogen ADME set (Fang et al. 2023)
